The results in this text go back to patent publication US7932246B2, “Histone deacetylase inhibitors” (Chroma Therapeutics Ltd., priority 2005, dated 2011).

In assay [1] the target is histone deacetylase activity (HeLa nuclear extract). Nature of the assay: HDAC fluorescent activity assay (Biomol, Fluor de Lys substrate). Conditions: IC50 range. The class given is biochemical. On the procedure:
The ability of compounds to inhibit histone deacetylase activities was measured using the commercially available HDAC fluorescent activity assay from Biomol. In brief, the Fluor de Lys™ substrate, a lysine with an epsilon-amino acetylation, is incubated with the source of histone deacetylase activity (HeLa nuclear extract) in the presence or absence of inhibitor. Deacetylation of the substrate sensitises the substrate to Fluor de Lys™ developer, which generates a fluorophore.
Data are expressed as a percentage of the control, measured in the absence of inhibitor, with background signal being subtracted from all samples, as follows:— % activity=[(S^i−B)/(S^o−B)]×100 where S^i is the signal in the presence of substrate, enzyme and inhibitor, S^o is the signal in the presence of substrate, enzyme and the vehicle in which the inhibitor is dissolved, and B is the background signal measured in the absence of enzyme.
Histone deacetylase activity from crude nuclear extract derived from HeLa cells was used for screening. The preparation, purchased from 4C (Seneffe, Belgium), was prepared from HeLa cells harvested whilst in exponential growth phase. The nuclear extract is prepared according to Dignam JD1983 Nucl. Acid. […] The final buffer composition was 20 mM Hepes, 100 mM KCl, 0.2 mM EDTA, 0.5 mM DTT, 0.2 mM PMSF and 20% (v/v) glycerol.

The test system of another assay is HeLa cells. Nature of the assay: HeLa cell inhibition assay (SRB cell viability). The class given is cell-based. Conditions: 72 h, IC50 range. On the procedure: HeLa cells growing in log phase were harvested and seeded at 1000 cells/well (200 μl final volume) into 96-well tissue culture plates. Following 24 h of cell growth cells were treated with compounds (final concentration of 20 μM). Plates were then re-incubated for a further 72 h before a sulphorhodamine B (SRB) cell viability assay was conducted according to Skehan 1990 J Natl Canc Inst 82, 1107-1112.
(§1) Data were expressed as a percentage inhibition of the control, measured in the absence of inhibitor, as follows:— % inhibition=100−[(S^i/S^o)×100] where S^i is the signal in the presence of inhibitor and S^o is the signal in the presence of DMSO.
IC50 values were determined by non-linear regression analysis, after fitting the results of eight data points to the equation for sigmoidal dose response with variable slope (% activity against log concentration of compound), using Graphpad Prism software.
(§2) IC50 results were allocated to one of 3 ranges as follows: […]

The test system of the next assay is U937. Nature of the assay: U937 cell inhibition assay (WST-1 cell viability). The assay is classed as cell-based. The note with it: U937 cells, 72-96 h, WST-1 assay, IC50 range. On the procedure:
(§3) Cancer cell lines (U937 and HUT) growing in log phase were harvested and seeded at 1000-2000 cells/well (100 μl final volume) into 96-well tissue culture plates. Following 24 h of growth cells were treated with compound. Plates were then re-incubated for a further 72-96 h before a WST-1 cell viability assay was conducted according to the suppliers (Roche Applied Science) instructions.
as §1
(§4) Dose response curves were generated from 8 concentrations (top final concentration 10 μM, with 3-fold dilutions), using 6 replicates.
(§5) IC50 values were determined by non-linear regression analysis, after fitting the results to the equation for sigmoidal dose response with variable slope (% activity against log concentration of compound), using Graphpad Prism software.
as §2
In general terms: Tetrazolium assays rely on reduction of a dye to a coloured formazan, in cell work by metabolically active cells.

The subject of the next assay is HUT. Nature of the assay: HUT cell inhibition assay (WST-1 cell viability). The note with it: HUT cells, 72-96 h, WST-1 assay, IC50 range. The class given is cell-based. On the procedure: as §3, §1, §4, §5, §2

In general, pIC50 refers to the negative decadic logarithm of the IC50, by convention in mol/L. A higher pIC50 goes with a small IC50.

The structures appear in SMILES notation. pIC50: −log10 of the molar value. Some results are limits rather than exact numbers.

Turning to `O=C(NO)c1cnc(N2CC3C(C2)C3NC(=O)c2ccc3occc3c2)nc1` (centres unmarked) [Example 16, N-Hydroxy 2-{6-[(1-benzofuran-5-ylcarbonyl)amino]-3-azabicyclo[3.1.0]hex-3-yl}pyrimidine-5-carboxamide], the pIC50 in assay [1] was > 7.00; with HeLa cells (Homo sapiens, HeLa) it was 5.48 to 6.48; with U937 (Homo sapiens, U-937), 5.48 to 6.48; in the assay on HUT, > 6.48.
Turning to `O=C(NO)c1cnc(N2CC3C(C2)C3NC(=O)c2cccs2)nc1` (centres unmarked) [Example 18, N-Hydroxy 2-{6-[(thien-2-ylcarbonyl)amino]-3-azabicyclo[3.1.0]hex-3-yl}pyrimidine-5-carboxamide], the pIC50 in assay [1] is > 7.00; in the assay with HeLa cells (Homo sapiens, HeLa) it was < 5.48; in the assay on U937 (Homo sapiens, U-937) it was < 5.48; with HUT it was 5.48 to 6.48.
Consider `O=C(Cc1ccc(-c2ccccc2)cc1)NC1C2CN(c3ncc(C(=O)NO)cn3)CC21` (centres unmarked) [Example 19, N-Hydroxy 2-[6-(2-biphenyl-4-yl-acetylamino)-3-azabicyclo[3.1.0]hex-3-yl]pyrimidine-5-carboxamide], for which the pIC50 in assay [1] was > 7.00; in the assay on HeLa cells (Homo sapiens, HeLa) it was > 6.48; in the assay on U937 (Homo sapiens, U-937), > 6.48; in the assay with HUT, > 6.48.
Regarding `O=C(NO)c1cnc(N2CC3C(C2)C3NCc2ccc3ccccc3c2)nc1` (centres unmarked) [Example 20, N-Hydroxy 2-{6-[(2-naphthylmethyl)amino]-3-azabicyclo[3.1.0]hex-3-yl}pyrimidine-5-carboxamide], the pIC50 in assay [1] was > 7.00; with HeLa cells (Homo sapiens, HeLa) it was 5.48 to 6.48; in the assay with U937 (Homo sapiens, U-937) it was > 6.48; in the assay with HUT, > 6.48.
For `O=C(NO)c1cnc(N2CC3C(C2)C3NCc2ccc(Oc3ccccc3)cc2)nc1` (centres unmarked) [Example 22, N-Hydroxy 2-[6-(4-phenoxybenzylamino)-3-azabicyclo[3.1.0]hex-3-yl]pyrimidine-5-carboxamide], the negative logarithm of the IC50 (pIC50) was > 7.00 in assay [1]; > 6.48 with HeLa cells (Homo sapiens, HeLa); > 6.48 in the assay on U937 (Homo sapiens, U-937); > 6.48 in the assay on HUT.
As to `CCCCc1ccc(CNC2C3CN(c4ncc(C(=O)NO)cn4)CC32)cc1` (centres unmarked) [Example 23, N-Hydroxy 2-[6-(4-butylbenzylamino)-3-azabicyclo[3.1.0]hex-3-yl]pyrimidine-5-carboxamide], the pIC50 is > 7.00 in assay [1]; 5.48 to 6.48 in the assay on HeLa cells (Homo sapiens, HeLa); 5.48 to 6.48 in the assay on U937 (Homo sapiens, U-937); > 6.48 with HUT.
Take `CC(CNC1C2CN(c3ncc(C(=O)NO)cn3)CC21)c1ccccc1` (centres unmarked) [Example 24, N-Hydroxy 2-{6-[(2-phenylpropyl)amino]-3-azabicyclo[3.1.0]hex-3-yl}pyrimidine-5-carboxamide]: the negative-log IC50 (pIC50) in assay [1] is > 7.00; in the assay with HeLa cells (Homo sapiens, HeLa) it was 5.48 to 6.48; with U937 (Homo sapiens, U-937), > 6.48; in the assay on HUT it was > 6.48.
As to `COc1ccc(CNC2C3CN(c4ncc(C(=O)NO)cn4)CC32)cc1` (centres unmarked) [Example 26, N-Hydroxy 2-{6-[(4-methoxybenzyl)amino]-3-azabicyclo[3.1.0]hex-3-yl}pyrimidine-5-carboxamide], the pIC50 in assay [1] is > 7.00; in the assay with HeLa cells, > 6.48; with U937, > 6.48; in the assay with HUT, > 6.48.
For the molecule `O=C(NO)c1cnc(N2CC3C(C2)C3NCc2ccc(-c3ccccc3)cc2)nc1` (centres unmarked) [Example 27, N-Hydroxy 2-{6-[(biphenyl-4-ylmethyl)-amino]-3-aza-bicyclo[3.1.0]hex-3-yl}pyrimidine-5-carboxamide], the pIC50 is > 7.00 in assay [1]; > 6.48 with HeLa cells (Homo sapiens, HeLa); > 6.48 in the assay on U937 (Homo sapiens, U-937); > 6.48 with HUT.
As to `O=C(NO)c1cnc(N2CC3C(C2)C3NCc2cc(F)cc(F)c2)nc1` (centres unmarked) [Example 28, N-Hydroxy 2-{6-[(3,5-difluorobenzyl)amino]-3-azabicyclo[3.1.0]hex-3-yl}pyrimidine-5-carboxamide], the pIC50 in assay [1] was > 7.00; in the assay on HeLa cells (Homo sapiens, HeLa), > 6.48; in the assay with U937 (Homo sapiens, U-937) it was > 6.48; with HUT, > 6.48.
For the molecule `CC(CCNC1C2CN(c3ncc(C(=O)NO)cn3)CC21)c1ccccc1` (centres unmarked) [Example 29, N-Hydroxy 2-[6-(3-phenylbutylamino)-3-aza-bicyclo[3.1.0]hex-3-yl]pyrimidine-5-carboxamide], the negative logarithm of the IC50 (pIC50) in assay [1] was > 7.00; in the assay on HeLa cells (Homo sapiens, HeLa), > 6.48; with U937 (Homo sapiens, U-937), > 6.48; in the assay on HUT, > 6.48.
`O=C(NO)c1cnc(N2CC3C(C2)C3NCc2ccc(Cl)cc2)nc1` (centres unmarked) [Example 30, N-Hydroxy 2-{6-[(4-chlorobenzyl)amino]-3-azabicyclo[3.1.0]hex-3-yl}pyrimidine-5-carboxamide]: the pIC50 in assay [1] was > 7.00; with HeLa cells (Homo sapiens, HeLa), > 6.48; with U937 (Homo sapiens, U-937), > 6.48; with HUT, > 6.48.
Turning to `N#Cc1ccc(CNC2C3CN(c4ncc(C(=O)NO)cn4)CC32)cc1` (centres unmarked) [Example 31, N-Hydroxy 2-{6-[(4-cyanobenzyl)amino]-3-azabicyclo[3.1.0]hex-3-yl}pyrimidine-5-carboxamide], the pIC50 was > 7.00 in assay [1]; 5.48 to 6.48 in the assay on HeLa cells (Homo sapiens, HeLa); > 6.48 in the assay on U937 (Homo sapiens, U-937); > 6.48 in the assay on HUT.
Consider `O=C(NO)c1cnc(N2CC3C(C2)C3NCc2csc3ccccc23)nc1` (centres unmarked) [Example 32, N-Hydroxy 2-{6-[(1-benzothien-3-ylmethyl)amino]-3-azabicyclo[3.1.0]hex-3-yl}pyrimidine-5-carboxamide], for which the pIC50 in assay [1] was > 7.00; in the assay with HeLa cells (Homo sapiens, HeLa), > 6.48; in the assay with U937 (Homo sapiens, U-937), > 6.48; in the assay on HUT it was > 6.48.
On to `O=C(NO)c1cnc(N2CC3C(C2)C3NCc2ccccc2)nc1` (centres unmarked) [Example 33, N-Hydroxy 2-[6-(benzylamino)-3-azabicyclo[3.1.0]hex-3-yl]pyrimidine-5-carboxamide], for which the pIC50 in assay [1] was > 7.00; in the assay on HeLa cells (Homo sapiens, HeLa), > 6.48; with U937 (Homo sapiens, U-937) it was > 6.48; in the assay on HUT, > 6.48.
As for `O=C(NO)c1cnc(N2CC3C(C2)C3NCc2ccc(OC(F)(F)F)cc2)nc1` (centres unmarked) [Example 34, N-Hydroxy 2-{6-[(4-trifluoromethoxybenzyl)amino]-3-azabicyclo[3.1.0]hex-3-yl}pyrimidine-5-carboxamide], the pIC50 in assay [1] was > 7.00; with HeLa cells (Homo sapiens, HeLa), 5.48 to 6.48; in the assay with U937 (Homo sapiens, U-937), > 6.48; with HUT, > 6.48.
As to `O=C(NO)c1cnc(N2CC3C(C2)C3NCc2cc(C(F)(F)F)cc(C(F)(F)F)c2)nc1` (centres unmarked) [Example 35, N-Hydroxy 2-{6-[(3,5-bistrifluoromethylbenzyl)amino]-3-azabicyclo[3.1.0]hex-3-yl}pyrimidine-5-carboxamide], the pIC50 in assay [1] is > 7.00; in the assay with HeLa cells (Homo sapiens, HeLa), > 6.48; with U937 (Homo sapiens, U-937), > 6.48; with HUT, > 6.48.
With `O=C(NO)c1cnc(N2CC3C(C2)C3NCc2cccc(-c3ccccc3)c2)nc1` (centres unmarked) [Example 37, N-Hydroxy 2-{6-[(biphenyl-3-ylmethyl)-amino]-3-aza-bicyclo[3.1.0]hex-3-yl}pyrimidine-5-carboxamide], the negative logarithm of the IC50 (pIC50) in assay [1] is > 7.00; in the assay with HeLa cells (Homo sapiens, HeLa) it was > 6.48; in the assay on U937 (Homo sapiens, U-937), > 6.48; with HUT, > 6.48.
Take `O=C(NO)c1cnc(N2CC3C(C2)C3NCCc2ccccc2)nc1` (centres unmarked) [Example 38, N-Hydroxy 2-{6-[(2-phenylethyl)amino]-3-azabicyclo[3.1.0]hex-3-yl}pyrimidine-5-carboxamide]: the pIC50 was > 7.00 in assay [1]; 5.48 to 6.48 in the assay with HeLa cells (Homo sapiens, HeLa); 5.48 to 6.48 with U937 (Homo sapiens, U-937); > 6.48 with HUT.
Regarding `O=C(NO)c1cnc(N2CC3C(C2)C3NCCC(c2ccccc2)c2ccccc2)nc1` (centres unmarked) [Example 39, N-Hydroxy 2-[6-(3,3-diphenylpropylamino)-3-azabicyclo[3.1.0]hex-3-yl]pyrimidine-5-carboxamide], the pIC50 in assay [1] was > 7.00; in the assay on HeLa cells (Homo sapiens, HeLa), 5.48 to 6.48; in the assay with U937 (Homo sapiens, U-937), > 6.48; in the assay on HUT, > 6.48.
